Key:
CD34 cells = test: CD34 cell expansion at Day 14 of the culture; format: cell-based, human; conditions: compound at 10 μM
Protocol: (§1) For biological testing, the compounds were provided to culture to evaluate their effects on NK cell expansion and differentiation. Specifically, donors of CD34^+ cells (StemCell Technology) were thawed and expanded in vitro following NK culture protocol. During the first 14 days of the culture, each CRL compounds was dissolved in DMSO and added to the culture at 10 μM concentration. SR1 (at 10 μM) served as a positive control compound, while DMSO alone without any compound served as a negative control. At the end of the culture on Day 35, cell expansion, natural killer (NK) cell differentiation and cytotoxicity of the cells against K562 tumor cell line were characterized. Due to the large number of the compounds, the testing was performed in two experiments, CRL1-11 and CRL 12-22. The same donors were used for each experiment. Positive and negative controls were also included in both experiments.

CD34+ cells [1] = test: NK cell expansion in three-stage NK culture with compound; format: cell-based, human; conditions: for expansion, differentiation and cytotoxicity profiles compared to SR1: PNK-007 culture; for support of NK (PNK-007) expansion: compound at 10 μM during the first 14 days, 35-day culture; for NK cell expansion compared to SR1: compound and SR1 at 10 μM, Day 35
Excerpt: (§2) UCB CD34+ cells were cultivated in presence of cytokines including thrombopoietin, SCF, Flt3 ligand, IL-7, IL-15 and IL-2 for 35 days to produce three-stage NK cells, as described in Example 1. Multi-color flow cytometry was used to determine the phenotypic characteristics of three-stage NK cells.
as §1

K562 tumor cells = test: Cytotoxicity assay of compound cultured cells against K562; format: cell-based; conditions: K562, 10:1 effector to target ratio
Protocol: as §1
Cytotoxicity assay was run using compound cultured cells against K562 tumor cells at 10:1 effector to target ratio (FIG. 5) to evaluate cell functions.

CD34+ cells [2] = test: NK cell differentiation of compound cultured cells (flow cytometry); format: cell-based, human; conditions: PNK-007 culture
Excerpt: as §2, §1

## Cc1cncc(-c2nc(NCCc3c[nH]c4ccccc34)c3occc3n2)c1 [CRL20, N-(2-(1H-indol-3-yl)ethyl)-2-(5-methylpyridin-3-yl)furo[3,2-d]pyrimidin-4-amine]
CD34 cells
  CD34 cell expansion: highest CD34 cell expansion
CD34+ cells [1]
  expansion, differentiation and cytotoxicity profiles compared to SR1: very similar expansion, differentiation and cytotoxicity profiles as SR1
  support of NK (PNK-007) expansion: supported cell expansion the best

## N#Cc1cncc(-c2nc(NCCc3c[nH]c4ccccc34)c3occc3n2)c1 [CRL22, 5-(4-((2-(1H-indol-3-yl)ethyl)amino)furo[3,2-d]pyrimidin-2-yl)nicotinonitrile]
CD34 cells
  CD34 cell expansion: highest CD34 cell expansion
CD34+ cells [1]
  expansion, differentiation and cytotoxicity profiles compared to SR1: very similar expansion, differentiation and cytotoxicity profiles as SR1
  support of NK (PNK-007) expansion: supported cell expansion the best

## Fc1cncc(-c2nc(NCCc3c[nH]c4ccccc34)c3occc3n2)c1 [CRL19, N-(2-(1H-indol-3-yl)ethyl)-2-(5-fluoropyridin-3-yl)furo[3,2-d]pyrimidin-4-amine]
CD34 cells
  CD34 cell expansion: highest CD34 cell expansion
CD34+ cells [1]
  expansion, differentiation and cytotoxicity profiles compared to SR1: very similar expansion, differentiation and cytotoxicity profiles as SR1
  support of NK (PNK-007) expansion: supported cell expansion the best

## CC(C)c1csc2c(NCCc3c[nH]c4ccccc34)nc(-c3cncc(C#N)c3)nc12 [CRL17, 5-(4-((2-(1H-indol-3-yl)ethyl)amino)-7-isopropylthieno[3,2-d]pyrimidin-2-yl)nicotinonitrile]
K562 tumor cells
  killing activities compared to cells cultured with SR1: increased killing activities of the cells
CD34+ cells [2]
  CD56+/CD11a+ subpopulation compared to SR1: increased CD56+/CD11a+ subpopulation
CD34+ cells [1]
  NK cell expansion compared to SR1: slightly less expansion compared to SR1

## CC(C)c1csc2c(NCCc3c[nH]c4ccccc34)nc(-c3cncc(F)c3)nc12 [CRL18, N-(2-(1H-indol-3-yl)ethyl)-2-(5-fluoropyridin-3-yl)-7-isopropylthieno[3,2-d]pyrimidin-4-amine]
K562 tumor cells
  killing activities compared to cells cultured with SR1: increased killing activities of the cells
CD34+ cells [2]
  CD56+/CD11a+ subpopulation compared to SR1: increased CD56+/CD11a+ subpopulation
CD34+ cells [1]
  NK cell expansion compared to SR1: slightly less expansion compared to SR1

## CCC(C)Nc1nc(NCCc2c[nH]c3ccccc23)c2ccccc2n1 (centres unmarked) [CRL13, N^4-(2-(1H-indol-3-yl)ethyl)-N^2-(sec-butyl)quinazoline-2,4-diamine]
CD34+ cells [1]
  support of NK (PNK-007) expansion: all the compounds except CRL7 and CRL13 supported PNK-007 expansion and differentiation

## Cc1cncc(-c2nc(NCCc3c[nH]c4ccccc34)c3scc(C(C)C)c3n2)c1 [CRL21, N-(2-(1H-indol-3-yl)ethyl)-7-isopropyl-2-(5-methylpyridin-3-yl)thieno[3,2-d]pyrimidin-4-amine]
K562 tumor cells
  killing activities compared to cells cultured with SR1: increased killing activities of the cells
CD34+ cells [2]
  CD56+/CD11a+ subpopulation compared to SR1: increased CD56+/CD11a+ subpopulation
CD34+ cells [1]
  NK cell expansion compared to SR1: slightly less expansion compared to SR1

## CCC(C)Nc1cc(-c2cncc(C#N)c2)nc(NCCc2c[nH]c3ccccc23)n1 (centres unmarked) [CRL7, 5-(2-((2-(1H-indol-3-yl)ethyl)amino)-6-(sec-butylamino)pyrimidin-4-yl)nicotinonitrile]
CD34+ cells [1]
  support of NK (PNK-007) expansion: all the compounds except CRL7 and CRL13 supported PNK-007 expansion and differentiation

— US20230355759A1, “POPULATIONS OF NATURAL KILLER CELLS COMPRISING A CLEAVAGE RESISTANT CD16” (CELULARITY INC., priority 2019, published 2023)
